Experimental findings from ChEMBL document CHEMBL4371023, “Synthesis of new betulinic acid/betulin-derived dimers and hybrids with potent antimalarial and antiviral activities” (Bioorg Med Chem, 2019) are described below.

SMILES strings stand for the structures.

The subject of assay [1] is Plasmodium falciparum. As to the kind of experiment: Antimalarial activity against ring stage Plasmodium falciparum 3D7 infected in type A-positive human erythrocytes after 72 hrs by SYBR green 1 dye-based fluorescence assay. It is filed as functional, organism-based. Particulars: 3D7, 72 h.
Assay [2] deals with Human betaherpesvirus 5. As to the kind of experiment: Antiviral activity against recombinant HCMV AD169 expressing GFP infected in human foreskin fibroblasts measured after 7 days by GFP-based multi-round replication assay. In kind it is functional, organism-based. The conditions noted are these: Human betaherpesvirus 5, strain AD169, 168 h.
For assay [3], the system named is Plasmodium falciparum. As to the kind of experiment: Potency index, ratio of betulin EC50 to compound EC50 for antimalarial activity against ring stage Plasmodium falciparum 3D7 infected in type A-positive human erythrocytes. It is filed as functional.
For assay [4], the system named is Plasmodium falciparum. As to the kind of experiment: Potency index, ratio of betulinic acid EC50 to compound EC50 for antimalarial activity against ring stage Plasmodium falciparum 3D7 infected in type A-positive human erythrocytes. It is filed as functional.
In assay [5] the test system is Human betaherpesvirus 5. As to the kind of experiment: Potency index, ratio of artesunic acid EC50 to compound EC50 for antiviral activity against recombinant HCMV AD169 expressing GFP infected in human foreskin fibroblasts. In kind it is functional, strain AD169.
For assay [6], the system named is Human betaherpesvirus 5. As to the kind of experiment: Potency index, ratio of betulinic acid EC50 to compound EC50 for antiviral activity against recombinant HCMV AD169 expressing GFP infected in human foreskin fibroblasts. In kind it is functional, strain AD169.

Usually EC50 stands for the concentration giving half of the maximal effect.

For the molecule `C=C(C)[C@@H]1CC[C@]2(C(=O)O)CC[C@]3(C)[C@H](CC[C@@H]4[C@@]5(C)CC[C@H](O)C(C)(C)[C@@H]5CC[C@]43C)[C@@H]12` [BETULINIC ACID], the EC50 in assay [1] is 1420 nM; in assay [2] it was 3620 nM.

As for `C=C(C)[C@@H]1CC[C@]2(COC(=O)CCC(=O)O[C@@H]3O[C@@H]4O[C@@]5(C)CC[C@H]6[C@H](C)CC[C@@H]([C@H]3C)[C@@]46OO5)CC[C@]3(C)[C@H](CC[C@@H]4[C@@]5(C)CC[C@H](O)C(C)(C)[C@@H]5CC[C@]43C)[C@@H]12`, the results for the concentration giving a half-maximal response (EC50) in assay [1] and in assay [2] were 255 nM and 880 nM, respectively. Besides, the “Ratio EC50” value in assay [3] came to 20.

Regarding `C[C@H]1[C@@H](O)O[C@@H]2O[C@@]3(C)CC[C@H]4[C@H](C)CC[C@@H]1[C@@]24OO3` [ARTENIMOL], the concentration giving a half-maximal response (EC50) is 2.6 nM in assay [1] and over 10000 nM in assay [2].

As to `C=C(C)[C@@H]1CC[C@]2(CO)CC[C@]3(C)[C@H](CC[C@@H]4[C@@]5(C)CC[C@H](O)C(C)(C)[C@@H]5CC[C@]43C)[C@@H]12` [BETULIN], the EC50 in assay [1] came out at 3940 nM; in assay [2], 1990 nM.

In assay [1], `CCN(CC)CCCC(C)Nc1ccnc2cc(Cl)ccc12` (stereo not given) [CHLOROQUINE PHOSPHATE] had an EC50 of 8.3 nM.

For the molecule `C=C(C)[C@@H]1CC[C@]2(C(=O)O)CC[C@]3(C)[C@H](CC[C@@H]4[C@@]5(C)CC[C@H](OC(=O)CCC(=O)O[C@@H]6O[C@@H]7O[C@@]8(C)CC[C@H]9[C@H](C)CC[C@@H]([C@H]6C)[C@@]79OO8)C(C)(C)[C@@H]5CC[C@]43C)[C@@H]12`, the “Ratio EC50” value is recorded as 16 in assay [4], 23 in assay [5] and 15 in assay [6]. Moreover, the 50% effective concentration (EC50) stood at 85 nM in assay [1] and 240 nM in assay [2].
